IC50 data for 20 molecules are collected here from patent publication US20230027985A1, “SUBSTITUTED HYDANTOINAMIDES AS ADAMTS7 ANTAGONISTS” (Bayer Aktiengesellschaft, priority 2019, published 2023).

As usually defined, the IC50 is the midpoint of a concentration-inhibition curve.

Each structure is given as a SMILES string.

In test [1] the target is T1, ADAMTS4 (Homo sapiens, UniProt O75173).
T1 construct: purchased R&D 4307-AD
T1 sequence (O75173 213-685 limits assumed): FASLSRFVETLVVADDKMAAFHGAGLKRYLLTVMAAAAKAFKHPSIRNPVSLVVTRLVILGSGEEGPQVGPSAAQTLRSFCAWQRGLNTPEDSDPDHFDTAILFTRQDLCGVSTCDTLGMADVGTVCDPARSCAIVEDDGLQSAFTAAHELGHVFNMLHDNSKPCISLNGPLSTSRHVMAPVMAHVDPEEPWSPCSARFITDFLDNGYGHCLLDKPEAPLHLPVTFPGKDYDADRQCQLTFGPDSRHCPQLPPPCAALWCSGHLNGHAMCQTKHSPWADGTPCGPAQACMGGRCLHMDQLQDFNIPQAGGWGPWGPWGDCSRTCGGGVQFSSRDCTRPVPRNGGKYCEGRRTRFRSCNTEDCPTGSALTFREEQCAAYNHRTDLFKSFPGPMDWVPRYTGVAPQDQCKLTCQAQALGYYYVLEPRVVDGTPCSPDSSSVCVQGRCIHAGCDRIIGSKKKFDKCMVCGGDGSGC
Kind of test: Selectivity assay for ADAMTS-7 modulators (FRET), ADAMTS4. It is filed as biochemical. The settings on record: 50 nM enzyme (R&D 4307-AD), 1 μM Dabcyl/Edans FRET substrate, 120 min at 32° C. In a few lines: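 Enzyme in 50 mM Tris pH 7.5, 150 mM NaCl, 10 mM CaCl2, 0.05% Brij, preincubated with compound in DMSO; reaction started with FRET substrate. Fluorescence increase read after 120 min at 32° C; IC50 from percent inhibition versus compound concentration.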

The target of test [2] is T2, Purified recombinant ADAMTS-7 (rat prodomain/human catalytic domain, SEQ ID No. 01 or 02) (Homo sapiens, UniProt Q9UKP4).
T2 construct: rat ADAMTS-7 signal peptide + prodomain (rat 1-217, Q1EHB3) (N); 2xStrep tag (C); 6xHis tag (C); made in house; host or cells: Expi293 cells
T2 sequence (Q9UKP4 237-537): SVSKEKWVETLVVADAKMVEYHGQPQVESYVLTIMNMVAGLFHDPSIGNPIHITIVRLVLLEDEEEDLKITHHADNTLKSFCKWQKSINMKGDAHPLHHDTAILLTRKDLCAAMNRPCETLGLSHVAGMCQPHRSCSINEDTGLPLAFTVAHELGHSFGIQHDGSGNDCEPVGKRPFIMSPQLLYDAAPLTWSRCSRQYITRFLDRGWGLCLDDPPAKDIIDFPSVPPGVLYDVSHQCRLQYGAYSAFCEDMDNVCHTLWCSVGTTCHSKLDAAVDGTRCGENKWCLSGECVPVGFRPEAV
Kind of test: Assay for ADAMTS-7 enzymatic activity (FRET substrate cleavage). Type of test: biochemical. The settings on record: FRET substrate SEQ ID No. 11, 120 min at 32° C.; read-out: ADAMTS7-IC50. Put shortly:
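IC50 values were fitted from percent inhibition across test-compound concentrations. Fluorescence gain (ex 485, em 520 nm) reports cleavage of a thrombospondin-1 (275-289) FRET peptide with QXL520 quencher, after 120 min at 32 °C. The enzyme, about 20 nM, was in HEPES pH 8.0 buffer with NaCl, CaCl2, ZnCl2 and Brij.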

`CC(C)C1(CNC(=O)c2cnn(-c3ccc(Cl)c(F)c3)n2)NC(=O)NC1=O` (single isomer, unassigned; ent-2) [Example 125, ent-2-(4-chloro-3-fluorophenyl)-N-[(4-isopropyl-2,5-dioxoimidazolidin-4-yl)methyl]-2H-1,2,3-triazole-4-carboxamide]: the figures for the half-inhibitory concentration (IC50) in test [1] and in test [2] were 1000 nM and 7 nM, respectively.

As to `CC(C)C1(CNC(=O)c2cnn(-c3ccc(F)c(Cl)c3)n2)NC(=O)NC1=O` (single isomer, unassigned; ent-2) [Example 126, ent-2-(3-chloro-4-fluorophenyl)-N-[(4-isopropyl-2,5-dioxoimidazolidin-4-yl)methyl]-2H-1,2,3-triazole-4-carboxamide], the IC50 was found to be 12000 nM in test [1] and 190 nM in test [2].

In the case of `Cn1ccnc1C1(CNC(=O)c2cnn(-c3ccc(F)cc3)n2)NC(=O)NC1=O` (single isomer, unassigned; ent-2) [Example 144, ent-2-(4-fluorophenyl)-N-{[4-(1-methyl-1H-imidazol-2-yl)-2,5-dioxoimidazolidin-4-yl]methyl}-2H-1,2,3-triazole-4-carboxamide], the IC50 in test [1] turned out to be 130 nM; in test [2], 2 nM.

Regarding `Cn1ccnc1C1(CNC(=O)c2cnn(-c3ccc(Cl)c(F)c3)n2)NC(=O)NC1=O` (single isomer, unassigned; ent-2) [Example 145, ent-2-(4-chloro-3-fluorophenyl)-N-{[4-(1-methyl-1H-imidazol-2-yl)-2,5-dioxoimidazolidin-4-yl]methyl}-2H-1,2,3-triazole-4-carboxamide], the half-inhibitory concentration (IC50) in test [1] worked out at 41 nM; in test [2], 2 nM.

Turning to `Cn1ccnc1C1(CNC(=O)c2cnn(-c3ccc(F)c(F)c3)n2)NC(=O)NC1=O` (single isomer, unassigned; ent-2) [Example 147, ent-2-(3,4-difluorophenyl)-N-{[4-(1-methyl-1H-imidazol-2-yl)-2,5-dioxoimidazolidin-4-yl]methyl}2H-1,2,3-triazole-4-carboxamide], the results for the IC50 in test [1] and in test [2] were 46 nM and 3 nM, respectively.

`CC1(CNC(=O)c2cnn(-c3ccc(F)cc3)n2)NC(=O)NC1=O` (single isomer, unassigned; ent-2) [Example 153, ent-2-(4-fluorophenyl)-N-[(4-methyl-2,5-dioxoimidazolidin-4-yl)methyl]-2H-1,2,3-triazole-4-carboxamide]: the IC50 was 8900 nM in test [1] and 83 nM in test [2].

On to `O=C1NC(=O)[C@](CNC(=O)c2cnn(-c3cccc(F)c3)n2)(C2CC2)N1` [Example 1, N-{[(4R)-4-cyclopropyl-2,5-dioxoimidazolidin-4-yl]methyl}-2-(3-fluorophenyl)-2H-1,2,3-triazole-4-carboxamide], for which the half-inhibitory concentration (IC50) in test [1] came to 580 nM; in test [2] it was 13 nM.

`CC(C)(C)C1(CNC(=O)c2cnn(-c3ccc(F)cc3)n2)NC(=O)NC1=O` (stereo not drawn) [Example 3, ent-N-{[4-tert-butyl-2,5-dioxoimidazolidin-4-yl]methyl}-2-(4-fluorophenyl)-2H-1,2,3-triazole-4-carboxamide]: the IC50 in test [1] came out at 2200 nM; in test [2], 79 nM.

Take `O=C1NC(=O)[C@](CNC(=O)c2cnn(-c3ccc(C(F)(F)F)c(F)c3)n2)(C2CC2)N1` [Example 5, N-{[(4R)-4-cyclopropyl-2,5-dioxoimidazolidin-4-yl]methyl}-2-[3-fluoro-4-(trifluoromethyl)phenyl]-2H-1,2,3-triazole-4-carboxamide]: the concentration for half-maximal inhibition (IC50) in test [1] was 4600 nM; in test [2], 120 nM.

As to `O=C1NC(=O)[C@](CNC(=O)c2cnn(-c3ccc(F)c(F)c3)n2)(C2CC2)N1` [Example 8, N-{[(4R)-4-cyclopropyl-2,5-dioxoimidazolidin-4-yl]methyl}-2-(3,4-difluorophenyl)-2H-1,2,3-triazole-4-carboxamide], the results for the IC50 in test [1] and in test [2] were 175 nM and 7 nM, respectively.

On to `O=C1NC(=O)[C@](CNC(=O)c2cnn(-c3ccc(Cl)cc3)n2)(C2CC2)N1` [Example 9, 2-(4-chlorophenyl)-N-{[(4R)-4-cyclopropyl-2,5-dioxoimidazolidin-4-yl]methyl}-2H-1,2,3-triazole-4-carboxamide], for which the IC50 in test [1] came out at 480 nM; in test [2], 26 nM.

`O=C1NC(=O)[C@](CNC(=O)c2cnn(-c3cccc(Cl)c3)n2)(C2CC2)N1` [Example 10, 2-(3-chlorophenyl)-N-{[(4R)-4-cyclopropyl-2,5-dioxoimidazolidin-4-yl]methyl}-2H-1,2,3-triazole-4-carboxamide]: the results for the IC50 in test [1] and in test [2] were 450 nM and 21 nM, respectively.

As to `O=C1NC(=O)[C@](CNC(=O)c2cnn(-c3ccccc3Cl)n2)(C2CC2)N1` [Example 11, 2-(2-chlorophenyl)-N-{[(4R)-4-cyclopropyl-2,5-dioxoimidazolidin-4-yl]methyl}-2H-1,2,3-triazole-4-carboxamide], the concentration for half-maximal inhibition (IC50) in test [1] amounted to 10000 nM; in test [2], 470 nM.

In the case of `Cc1ccccc1-n1ncc(C(=O)NC[C@@]2(C3CC3)NC(=O)NC2=O)n1` [Example 12, N-{[(4R)-4-cyclopropyl-2,5-dioxoimidazolidin-4-yl]methyl}-2-(2-methylphenyl)-2H-1,2,3-triazole-4-carboxamide], the IC50 in test [1] was determined as 12000 nM; in test [2], 980 nM.

`Cc1ccc(-n2ncc(C(=O)NC[C@@]3(C4CC4)NC(=O)NC3=O)n2)cc1` [Example 13, N-{[(4R)-4-cyclopropyl-2,5-dioxoimidazolidin-4-yl]methyl}-2-(4-methylphenyl)-2H-1,2,3-triazole-4-carboxamide]: the IC50 in test [1] was 950 nM; in test [2], 47 nM.

Regarding `N#Cc1ccc(-n2ncc(C(=O)NC[C@@]3(C4CC4)NC(=O)NC3=O)n2)cc1` [Example 14, 2-(4-cyanophenyl)-N-{[(4R)-4-cyclopropyl-2,5-dioxoimidazolidin-4-yl]methyl}-2H-1,2,3-triazole-4-carboxamide], the IC50 was found to be 17000 nM in test [1] and 400 nM in test [2].

In the case of `N#Cc1cccc(-n2ncc(C(=O)NC[C@@]3(C4CC4)NC(=O)NC3=O)n2)c1` [Example 17, 2-(3-cyanophenyl)-N-{[(4R)-4-cyclopropyl-2,5-dioxoimidazolidin-4-yl]methyl}-2H-1,2,3-triazole-4-carboxamide], the IC50 in test [1] was 600 nM; in test [2], 32 nM.

On to `Cc1cccc(-n2ncc(C(=O)NC[C@@]3(C4CC4)NC(=O)NC3=O)n2)c1` [Example 18, N-{[(4R)-4-cyclopropyl-2,5-dioxoimidazolidin-4-yl]methyl}-2-(3-methylphenyl)-2H-1,2,3-triazole-4-carboxamide], for which the IC50 in test [1] came out at 2200 nM; in test [2], 170 nM.

For `COc1ccc(-n2ncc(C(=O)NC[C@@]3(C4CC4)NC(=O)NC3=O)n2)cc1` [Example 27, N-{[(4R)-4-cyclopropyl-2,5-dioxoimidazolidin-4-yl]methyl}-2-(4-methoxyphenyl)-2H-1,2,3-triazole-4-carboxamide], the IC50 was determined as 6000 nM in test [1] and 100 nM in test [2].

For `CS(=O)(=O)c1ccc(-n2ncc(C(=O)NC[C@@]3(C4CC4)NC(=O)NC3=O)n2)cc1` [Example 28, N-{[(4R)-4-cyclopropyl-2,5-dioxoimidazolidin-4-yl]methyl}-2-[4-(methylsulfonyl)phenyl]-2H-1,2,3-triazole-4-carboxamide], the concentration for half-maximal inhibition (IC50) was determined as 67000 nM in test [1] and 870 nM in test [2].
